The target of one data set is T1, Flt-1 (Homo sapiens, UniProt P17948).
T1 construct: expressed in transfected cells; host or cells: NIH3T3 cells (G418-selected)
Nature of the data set: VEGF Receptor-Binding Test ([125I]-VEGF binding to NIH3T3 cells in which Flt-1 was forced to be expressed). Conditions: test compound concentration 1 μg/ml; [125I]-VEGF 25 pM; 90 minutes at 4° C. As to the method:
According to the method described in a document (Cell Growth & Differentiation, vol. 7, pp. 213-221, 1996), the following tests were carried out.
NIH3T3 cells, in which Flt-1 was forced to be expressed, were seeded on a 24-well collagen-coated plate (7×10^4 cells/well), and were cultured in Dulbecco's modified Eagle's medium (DMEM) containing 10% bovine serum and 200 μg/ml of Geneticin G418 for 24 hours at 37° C. under an atmosphere of 5% carbon dioxide gas. The cells were preincubated in Buffer A [containing 10 mM HEPES (N-2-hydroxyethylpiperazine-N′-2-ethanesulfonic acid) and 0.1% BSA (bovine serum albumin) in DMEM] for 30 minutes at 4° C. Subsequently, the medium was replaced with Buffer B (containing 10 mM HEPES and 0.5% BSA in DMEM). […] The radioactivity of the lysed cells in each well was measured by means of a gamma counter, and a total binding quantity of [^125I]-VEGF was calculated. Non-specific binding quantity of [^125I]-VEGF was measured by competition assay in the presence of 10 nM non-labeled VEGF. The specific binding quantity of [^125I]-VEGF was calculated from the difference between the total binding quantity of [^125I]-VEGF and non-specific binding quantity of ^125I]-VEGF. The binding inhibition index of the test compounds was calculated by the following equation.

The conditions of data set [1]: pH 6.9; phosphate buffer 20 mM; 25° C.
Experimental: 1 mg of a test compound was weighed out in a threaded test tube, 1 ml of a phosphate buffer (pH: 6.8; 20 mM; ion intensity=0.15) was added thereto and, after shaking for 2 hours at room temperature under light-shielded condition, was incubated for 22 hours at 25° C. A supernatant obtained by centrifuging the test tube for 10 minutes at 3000 rpm at 25° C. was further centrifuged for 10 minutes at 11000 rpm at 25° C. The thus-obtained supernatant was diluted with a water/acetonitrile (1:1) mixture with a dilution ratio of 2 times to 21 times to prepare a sample solution (A). Also, 0.5 mg of the test compound was dissolved in 5 ml of acetonitrile, and diluted two times with acetonitrile to prepare a standard solution (B). 10 μl of the sample solution (A) and 10 μl of the standard solution (B) were subjected to measurement according to HPLC method to determine a peak area of the test compound in each of the solutions. The solubility (mg/ml) of the test compound was calculated according to the following equation using the measured values.
Column temperature: 40° C.

Values after ≈ are worked out from the molar mass of the structure shown.

The source of these data is patent US20050222423A1, “Carboxylic acid derivative” (TAISHO PHAR[…]., LTD., priority 2001, published 2005).

T1 sequence (P17948 27-1338): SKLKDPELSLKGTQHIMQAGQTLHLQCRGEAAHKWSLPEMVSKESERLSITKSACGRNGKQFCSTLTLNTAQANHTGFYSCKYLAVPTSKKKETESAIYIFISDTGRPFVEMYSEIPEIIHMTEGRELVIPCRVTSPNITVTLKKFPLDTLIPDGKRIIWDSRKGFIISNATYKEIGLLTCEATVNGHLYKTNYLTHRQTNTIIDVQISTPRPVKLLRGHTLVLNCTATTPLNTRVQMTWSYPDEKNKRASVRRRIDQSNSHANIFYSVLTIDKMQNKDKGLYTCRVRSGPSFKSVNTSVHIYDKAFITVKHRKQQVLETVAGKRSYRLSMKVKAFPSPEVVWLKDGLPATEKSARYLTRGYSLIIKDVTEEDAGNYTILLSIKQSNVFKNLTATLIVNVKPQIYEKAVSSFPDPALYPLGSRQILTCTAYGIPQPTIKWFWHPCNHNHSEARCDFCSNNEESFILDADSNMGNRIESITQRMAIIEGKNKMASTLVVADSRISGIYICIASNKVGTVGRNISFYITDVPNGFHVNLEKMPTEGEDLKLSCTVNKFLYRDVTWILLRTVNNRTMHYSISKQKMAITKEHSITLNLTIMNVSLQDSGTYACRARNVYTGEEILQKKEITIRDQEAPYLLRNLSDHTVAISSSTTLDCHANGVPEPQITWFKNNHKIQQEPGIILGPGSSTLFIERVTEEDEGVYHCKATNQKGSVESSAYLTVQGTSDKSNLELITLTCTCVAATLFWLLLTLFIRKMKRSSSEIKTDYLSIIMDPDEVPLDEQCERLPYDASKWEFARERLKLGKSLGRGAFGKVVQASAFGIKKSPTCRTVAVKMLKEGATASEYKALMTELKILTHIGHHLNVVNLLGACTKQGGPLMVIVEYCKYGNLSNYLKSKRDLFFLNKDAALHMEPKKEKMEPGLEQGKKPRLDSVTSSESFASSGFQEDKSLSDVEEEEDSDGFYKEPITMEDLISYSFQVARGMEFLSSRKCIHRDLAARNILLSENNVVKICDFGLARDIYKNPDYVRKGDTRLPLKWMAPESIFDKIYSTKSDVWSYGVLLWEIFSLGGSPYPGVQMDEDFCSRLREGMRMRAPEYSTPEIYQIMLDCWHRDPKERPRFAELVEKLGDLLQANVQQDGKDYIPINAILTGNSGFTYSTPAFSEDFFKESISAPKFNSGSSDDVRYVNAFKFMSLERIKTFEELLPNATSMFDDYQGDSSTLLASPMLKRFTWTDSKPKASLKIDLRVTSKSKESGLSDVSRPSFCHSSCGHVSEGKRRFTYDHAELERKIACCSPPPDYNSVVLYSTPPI

With `CCCCCCCCCCCCCCCCCCOc1ccc(CCC(=O)Nc2ccc(Oc3ccc(C(=O)O)cc3)c(C(=O)O)c2)cc1` [a, 5-Amino-2-(4-carboxyphenoxy)-N-[3-{4-(1-octadecyloxy)-phenyl}propionyl]benzoic acid], at Flt-1, the “Inhibition Index” value worked out at 65%. The compound also registered a Solubility in data set [1] of 0.029 µg/mL (≈ 0.043 µM).
